Key:
APP = APP expression and processing (real-time PCR, western blot) in J20 hippocampus; format: in vivo, mouse
Method: (§1) VX-765 (Adooq Bioscience, Irvine, CA, USA) was dissolved 5 mg • ml^−1 in 20% cremophor in dH2O[60] (Sigma-Aldrich, ON, Canada) and administered IPWT and J20 mice received three injections per week of either 50 mg • kg^−1 VX-765 or 20% cremophor vehicle for 4 weeks between 2 and 3 months of age. Mice were longitudinally followed starting 4 weeks after the last injection [4-week washout (WO)], then every other month at 12- and 20-week WO (6 and 8 months of age, respectively). Intermediate 8- and 16-week WO periods were also looked at with a smaller number of mice. After each WO period, animals were randomly chosen, independent of behavioural performance, for sacrifice and assigned to either histological or biochemical analysis (Fig. 2a).
Mice for biochemical analyses were isoflurane anesthetized, sacrificed by cervical dislocation, and the hippocampus and cortex dissected out and immediately frozen on dry ice. Brain tissue was homogenized in radioimmunoprecipitation assay (RIPA) buffer (50 mM Tris-HCl pH: 7.4, 1% NP-40, 0.25% Na-deoxycholate, 150 mM NaCl, 1 mM EDTA, with protease inhibitors), and supernatants placed in Laemmli (5% 2-β mercaptoethanol with protease inhibitors).
(§2) Twenty to sixty micrograms of protein or 16 μl of precipitated protein from culture medium were separated on SDS-PAGE or 4–12% NuPAGE Bis-Tris gels (Invitrogen, Carlsbad, CA, USA) with MES buffer (Invitrogen) and transferred onto PVDF membranes (Bio-Rad) according to the manufacturer’s instructions. […] Protein levels were normalized to β-actin and expressed as a percentage relative to the vehicle-treated WT group, except for APP which was compared to the vehicle-treated J20 group. […]
RNA was extracted with Qiazol and purified using the miRNeasy mini kit (Qiagen, CA, USA). RNA quality and quantity were determined using a spectrophotometer (DS-11 FX+, DeNovix, DE, USA) and RNA was reverse transcribed using First Strand cDNA Synthesis Kit (Qiagen) following the manufacturer’s protocol. […]

Casp11 = system: Casp11; design: method as in Flores et al., Nature Communications 2018; conditions: ref Flores et al., Nature Communications 2018; cited from earlier work
WT mice = assay: Barnes maze, spatial learning and memory; format: in vivo, mouse
Method: as §1
(§3) Open-field and novel object recognition (NOR) were measured at all WO periods. The Barnes maze was assessed at 12- and 20-week WO. Open field: Mice were placed in an open-field chamber, composed of a plexiglass box with no ceiling and white floor, and allowed to explore for 5 min. NOR: Mice were pre-exposed to two identical objects in the open-field chamber for 5 min. Two hours after pre-exposure, mice were placed back into the chamber and exposed to one familiar object and one novel object for 5 min (test phase). Mice were exposed to a specific object only once across multiple test sessions. Barnes maze: Learning acquisition (days 1–4)—each mouse was trained to find the target and enter the escape box within 180 s. Four trials per day, ~15 min apart, were performed for 4 consecutive days. Probe (day 5)—a single, 90 s trial was performed on each mouse to measure primary latency and number of errors to reach the blocked target. Target hole location was changed between the two separate test sessions. Behavioural scoring was blinded to mouse genotype and treatment.

J20 mice = assay: Barnes maze, spatial learning and memory; format: in vivo, mouse
Method: as §1, §3

[1] = cited from earlier work
IDE and Nep = IDE and Nep mRNA and protein levels; format: in vivo, mouse; conditions: hippocampus
Method: as §1, §2

[2] = system: experimental allergic encephalitis multiple sclerosis mouse model; design: method as in PMID 29895691; conditions: cited from earlier work
all other caspases = system: all other caspases; design: method as in PMID 30254377, PMID 17289835; conditions: cited from earlier work
[3] = J20, 12-week WO, probe 24 h after last training day

CCO[C@@H]1OC(=O)C[C@@H]1NC(=O)[C@@H]1CCCN1C(=O)[C@@H](NC(=O)c1ccc(N)c(Cl)c1)C(C)(C)C [VX-765, (S)-1-((S)-2-{[1-(4-amino-3-chloro-phenyl)-methanoyl]-amino}-3,3-dimethyl-butanoyl)-pyrrolidine-2-carboxylic acid ((2R,3S)-2-ethoxy-5-oxo-tetrahydro-furan-3-yl)-amide]
APP protein levels (anti-APP C-terminal antibody) (APP; 4- and 20-week WO): not affected | βCTF and αCTF levels (APP; 4- or 20-week WO, vehicle vs VX-765): no differences in βCTF and αCTF levels | human APP mRNA levels (APP; 4-, 12- or 20-week WO): did not alter | IC50 for Casp11 compared to Casp1 (Casp11): over 100 fold | Barnes maze probe primary latency and primary errors (WT mice; 12-week WO, vs vehicle-treated WT): decreased primary latency and primary errors compared to vehicle-treated WT mice | Barnes maze probe primary latency and primary errors (WT mice; 20-week WO): This effect was attenuated at 20-week WO | Barnes maze probe preference towards the target area (J20 mice; 12-week WO): All groups, except the vehicle-treated J20 group, showed a preference towards the target area | Barnes maze training primary latency (J20 mice; 12-week WO, all groups): did not differ between groups | Barnes maze learning acquisition primary errors (J20 mice; J20, 12-week WO, 50 mg/kg IP 3x/week for 1 month): prevented this learning deficit in J20 mice and reduced the number of errors committed to near WT levels | Barnes maze probe primary errors (J20 mice; [3]): VX-765 treatment prevented this deficit | Barnes maze probe primary latency (J20 mice; [3]): did not differ between vehicle- or VX-765-treated J20 and vehicle-treated WT groups | Barnes maze learning deficits (J20 mice; J20, 20-week WO): vehicle-, but not VX-765-treated, J20 mice exhibited learning deficits | Barnes maze probe primary latency and primary errors (J20 mice; J20, 20-week WO): these deficits were prevented with VX-765 treatment | in vitro half-life (t1/2) [1]: ~ 157 h | Nep mRNA and protein levels (IDE and Nep): remained unchanged | IDE mRNA or protein levels (IDE and Nep; WT vs vehicle- or VX-765-treated J20): did not change between WT and vehicle- or VX-765-treated J20 mice | inflammasome-related gene expression, axonal injury, behaviour [2]: reduce inflammasome-related gene expression, axonal injury, improve behaviour | specificity to Casp1 (all other caspases): specificity to Casp1 against all other caspases
